The values that follow come from patent US8436043B2 (Takeda Pharmaceutical Company Limited, priority 2008, dated 2013).

SMILES strings stand for the structures.

T1 sequence (P47871 26-477): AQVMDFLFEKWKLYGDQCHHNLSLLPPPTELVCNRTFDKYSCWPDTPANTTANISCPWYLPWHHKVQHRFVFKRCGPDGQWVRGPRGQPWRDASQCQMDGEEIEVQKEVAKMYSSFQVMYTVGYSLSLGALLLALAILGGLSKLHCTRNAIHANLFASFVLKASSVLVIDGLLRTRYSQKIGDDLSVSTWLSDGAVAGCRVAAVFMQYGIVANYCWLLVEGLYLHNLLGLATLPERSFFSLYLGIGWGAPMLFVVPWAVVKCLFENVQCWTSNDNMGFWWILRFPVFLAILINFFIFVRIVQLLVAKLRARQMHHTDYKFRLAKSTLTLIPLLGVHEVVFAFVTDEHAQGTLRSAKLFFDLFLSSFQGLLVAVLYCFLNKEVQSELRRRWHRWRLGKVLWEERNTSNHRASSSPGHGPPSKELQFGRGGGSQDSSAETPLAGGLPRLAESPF

One test addresses T1, human glucagon receptor (Homo sapiens, UniProt P47871).
T1 construct: made in house; host or cells: FreeStyle CHO cells, transient transfection with pMSRαneo/hGCGR; membrane fraction (35,000 rpm pellet)
The test can be described thus: Glucagon binding inhibitory activity ([125I]-glucagon binding to glucagon receptor membrane protein). The conditions noted are these: test compound 10 μM; 0.4% DMSO = 0%, non-labeled glucagon 1 μM = 100%. Put shortly: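 Receptor source was a membrane fraction of transiently transfected CHO cells bearing human receptor; 90 min room-temperature binding, filtration harvest, scintillation counting.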
For the compound `Cc1c(C(Nc2ccc(C(=O)N(C)CCC(=O)O)cn2)C2CCCCC2)oc2ccc(F)cc12` (centres unmarked) [Example A54, 3-{[(6-{[cyclohexyl(5-fluoro-3-methyl-1-benzofuran-2-yl)methyl]amino}pyridin-3-yl)carbonyl](methyl)amino}propanoic acid], the “inhibitory rate (%) at 10 μM” value came out at 52%.

For the compound `Cc1c(C(Nc2ccc(C(=O)N(C)CCC(=O)O)nc2)C2CCCCC2)oc2ccc(F)cc12` (centres unmarked) [Example A57], the “inhibitory rate (%) at 10 μM” value is given as 85%.

In the case of `Cc1c(C(Nc2ccc(C(=O)N(C)CCC(=O)O)nc2)C2CCCCC2)sc2ccccc12` (centres unmarked) [Example A60, 3-{[(5-{[cyclohexyl(3-methyl-1-benzothiophen-2-yl)methyl]amino}pyridin-2-yl)carbonyl](methyl)amino}propanoic acid], the “inhibitory rate (%) at 10 μM” value was found to be 85%.

Regarding `Cc1c(C(Nc2ccc(C(=O)N(C)CCC(=O)O)cc2)C2CCCC2)sc2ccccc12` (centres unmarked) [Example A65, 3-{[(4-{[cyclopentyl(3-methyl-1-benzothiophen-2-yl)methyl]amino}phenyl)carbonyl](methyl)amino}propanoic acid], the “inhibitory rate (%) at 10 μM” value came to 79%.

On to `Cc1c(C(Nc2ccc(C(=O)N(C)CCC(=O)O)cc2)C2CCCC2)oc2ccc(F)cc12` (centres unmarked) [Example A69], for which the “inhibitory rate (%) at 10 μM” value worked out at 89%.

With `COCCOc1ccc2oc(C(Nc3ccc(C(=O)N(C)CCC(=O)O)cc3)C3CCCCC3)c(C)c2c1` (centres unmarked) [Example A80, 3-[{[4-({cyclohexyl[5-(2-methoxyethoxy)-3-methyl-1-benzofuran-2-yl]methyl}amino)phenyl]carbonyl}(methyl)amino]propanoic acid], the “inhibitory rate (%) at 10 μM” value amounted to 92%.

As to `Cc1c(C(Nc2ccc(C(=O)N(C)CCC(=O)O)cc2)C(C)C)oc2ccc(OCc3ccccc3)cc12` (centres unmarked) [Example A86, 3-[{[4-({1-[5-(benzyloxy)-3-methyl-1-benzofuran-2-yl]-2-methylpropyl}amino)phenyl]carbonyl}(methyl)amino]propanoic acid], the “inhibitory rate (%) at 10 μM” value came to 89%.

The test is the same for the next values; noted with them: test compound 10 μM; 0.4% DMSO = 0%, non-labeled glucagon 1 μM = 100%; read-out: inhibitory rate (%) at 10 μM.
Consider `COCc1c(C(Nc2ccc(C(=O)NCCC(=O)O)cc2)C2CCCCC2)oc2ccc(F)cc12` (centres unmarked) [Example A47, 3-({[4-({cyclohexyl[5-fluoro-3-(methoxymethyl)-1-benzofuran-2-yl]methyl}amino)phenyl]carbonyl}amino)propanoic acid], for which the inhibition at 10 µM turned out to be 67%.

Consider `COCc1c(C(Nc2ccc(C(=O)N(C)CCC(=O)O)cc2)C2CCCCC2)oc2ccc(F)cc12` (centres unmarked) [Example A48, 3-[{[4-({cyclohexyl[5-fluoro-3-(methoxymethyl)-1-benzofuran-2-yl]methyl}amino)phenyl]carbonyl}(methyl)amino]propanoic acid], for which the inhibition at 10 µM turned out to be 66%.

On to `Cc1c(C(Nc2ccc(C(=O)NCCC(=O)O)cn2)C2CCCCC2)oc2ccc(F)cc12` (centres unmarked) [Example A51, 3-{[(6-{[cyclohexyl(5-fluoro-3-methyl-1-benzofuran-2-yl)methyl]amino}pyridin-3-yl)carbonyl]amino}propanoic acid], for which the inhibition at 10 µM was determined as 71%.

In the case of `Cc1c(C(Nc2ccc(C(=O)N(C)CCC(=O)O)cn2)C2CCCCC2)oc2ccc(F)cc12` (centres unmarked) [Example A52, 3-{[(6-{[cyclohexyl(5-fluoro-3-methyl-1-benzofuran-2-yl)methyl]amino}pyridin-3-yl)carbonyl](methyl)amino}propanoic acid], the inhibition at 10 µM came out at 64%.

Turning to `Cc1c(C(Nc2ccc(C(=O)NCCC(=O)O)nc2)C2CCCCC2)oc2ccc(F)cc12` (centres unmarked) [Example A55, 3-{[(5-{[cyclohexyl(5-fluoro-3-methyl-1-benzofuran-2-yl)methyl]amino}pyridin-2-yl)carbonyl]amino}propanoic acid], the inhibition at 10 µM was 90%.

For `Cc1c(C(Nc2ccc(C(=O)N(C)CCC(=O)O)nc2)C2CCCCC2)oc2ccc(F)cc12` (centres unmarked) [Example A56, 3-{[(5-{[cyclohexyl(5-fluoro-3-methyl-1-benzofuran-2-yl)methyl]amino}pyridin-2-yl)carbonyl](methyl)amino}propanoic acid], the inhibition at 10 µM amounted to 76%.

In the case of `Cc1c(C(Nc2ccc(C(=O)N(C)CCC(=O)O)nc2)C2CCCCC2)sc2ccccc12` (centres unmarked) [Example A59, 3-{[(5-{[cyclohexyl(3-methyl-1-benzothiophen-2-yl)methyl]amino}pyridin-2-yl)carbonyl](methyl)amino}propanoic acid], the inhibition at 10 µM is 77%.

As for `Cc1c(C(Nc2ccc(C(=O)NCCC(=O)O)nc2)C2CCCCC2)sc2ccccc12` (centres unmarked) [Example A62, 3-{[(5-{[cyclohexyl(3-methyl-1-benzothiophen-2-yl)methyl]amino}pyridin-2-yl)carbonyl]amino}propanoic acid], the inhibition at 10 µM worked out at 81%.

Take `Cc1c(C(Nc2ccc(C(=O)NCCC(=O)O)cc2)C2CCCC2)sc2ccccc12` (centres unmarked) [Example A63, 3-{[(4-{[cyclopentyl(3-methyl-1-benzothiophen-2-yl)methyl]amino}phenyl)carbonyl]amino}propanoic acid]: the inhibition at 10 µM is 90%.

Regarding `Cc1c(C(Nc2ccc(C(=O)N(C)CCC(=O)O)cc2)C2CCCC2)sc2ccccc12` (centres unmarked) [Example A64, 3-{[(4-{[cyclopentyl(3-methyl-1-benzothiophen-2-yl)methyl]amino}phenyl)carbonyl](methyl)amino}propanoic acid], the inhibition at 10 µM is 84%.

As to `Cc1c(C(Nc2ccc(C(=O)N(C)CCC(=O)O)cc2)C2CCCC2)oc2ccc(F)cc12` (centres unmarked) [Example A68, 3-{[(4-{[cyclopentyl(5-fluoro-3-methyl-1-benzofuran-2-yl)methyl]amino}phenyl)carbonyl](methyl)amino}propanoic acid], the inhibition at 10 µM is 82%.

In the case of `CCC(CC)C(Nc1ccc(C(=O)N(C)CCC(=O)O)cc1)c1oc2ccc(F)cc2c1C` (centres unmarked) [Example A72, 3-{[(4-{[2-ethyl-1-(5-fluoro-3-methyl-1-benzofuran-2-yl)butyl]amino}phenyl)carbonyl](methyl)amino}propanoic acid], the inhibition at 10 µM is 79%.

As for `COCCOc1ccc2oc(C(Nc3ccc(C(=O)N(C)CCC(=O)O)cc3)C3CCCCC3)c(C)c2c1` (centres unmarked) [Example A79, 3-[{[4-({cyclohexyl[5-(2-methoxyethoxy)-3-methyl-1-benzofuran-2-yl]methyl}amino)phenyl]carbonyl}(methyl)amino]propanoic acid], the inhibition at 10 µM came out at 73%.

In the case of `Cc1c(C(Nc2ccc(C(=O)N(C)CCC(=O)O)cc2)C2CCCCC2)oc2ccc(OC3CCOCC3)cc12` (centres unmarked) [Example A82, 3-[{[4-({cyclohexyl[3-methyl-5-(tetrahydro-2H-pyran-4-yloxy)-1-benzofuran-2-yl]methyl}amino)phenyl]carbonyl}(methyl)amino]propanoic acid], the inhibition at 10 µM amounted to 89%.

Turning to `Cc1c(C(Nc2ccc(C(=O)N(C)CCC(=O)O)cc2)C(C)C)oc2ccc(OCc3ccccc3)cc12` (centres unmarked) [Example A85, 3-[{[4-({1-[5-(benzyloxy)-3-methyl-1-benzofuran-2-yl]-2-methylpropyl}amino)phenyl]carbonyl}(methyl)amino]propanoic acid], the inhibition at 10 µM came out at 82%.

Turning to `Cc1c(C(Nc2ccc(C(=O)NCCC(=O)O)cc2)C2CCCCC2)oc2ccc(Cl)cc12` (centres unmarked) [Example A88, 3-{[(4-{[(5-chloro-3-methyl-1-benzofuran-2-yl)(cyclohexyl)methyl]amino}phenyl)carbonyl]amino}propanoic acid], the inhibition at 10 µM came out at 75%.

For the compound `Cc1c(C(Nc2ccc(C(=O)N(C)CCC(=O)O)cc2)C2CCCCC2)oc2ccc(Cl)cc12` (centres unmarked) [Example A89], the inhibition at 10 µM was found to be 80%.

Turning to `Cc1ccc2oc(C(Nc3ccc(C(=O)NCCC(=O)O)cc3)C3CCCCC3)c(C)c2c1` (centres unmarked) [Example A90, 3-{[(4-{[cyclohexyl(3,5-dimethyl-1-benzofuran-2-yl)methyl]amino}phenyl)carbonyl]amino}propanoic acid], the inhibition at 10 µM stood at 77%.

In the case of `Cc1ccc2oc(C(Nc3ccc(C(=O)N(C)CCC(=O)O)cc3)C3CCCCC3)c(C)c2c1` (centres unmarked) [Example A91, 3-{[(4-{[cyclohexyl(3,5-dimethyl-1-benzofuran-2-yl)methyl]amino}phenyl)carbonyl](methyl)amino}propanoic acid], the inhibition at 10 µM worked out at 79%.

For the compound `COc1ccc2oc(C(CC(C)C)Nc3ccc(C(=O)NCCC(=O)O)cc3)c(C)c2c1` (centres unmarked) [Example A92, 3-{[(4-{[1-(5-methoxy-3-methyl-1-benzofuran-2-yl)-3-methylbutyl]amino}phenyl)carbonyl]amino}propanoic acid], the inhibition at 10 µM amounted to 76%.

`COc1ccc2oc(C(CC(C)C)Nc3ccc(C(=O)N(C)CCC(=O)O)cc3)c(C)c2c1` (centres unmarked) [Example A93, 3-{[(4-{[1-(5-methoxy-3-methyl-1-benzofuran-2-yl)-3-methylbutyl]amino}phenyl)carbonyl](methyl)amino}propanoic acid]: the inhibition at 10 µM came out at 70%.

With `Cc1c(C(COc2ccccc2)Nc2ccc(C(=O)NCCC(=O)O)cc2)oc2ccccc12` (centres unmarked) [Example A94, 3-{[(4-{[1-(3-methyl-1-benzofuran-2-yl)-2-phenoxyethyl]amino}phenyl)carbonyl]amino}propanoic acid], the inhibition at 10 µM came to 57%.

Turning to `Cc1c(C(Nc2ccc(C(=O)NCCC(=O)O)cc2)C2CCCCC2)oc2cc(F)ccc12` (centres unmarked) [Example A96, 3-{[(4-{[cyclohexyl(6-fluoro-3-methyl-1-benzofuran-2-yl)methyl]amino}phenyl)carbonyl]amino}propanoic acid], the inhibition at 10 µM was determined as 76%.

Regarding `Cc1c(C(Nc2ccc(C(=O)N(C)CCC(=O)O)cc2)C2CCCCC2)oc2cc(F)ccc12` (centres unmarked) [Example A97], the inhibition at 10 µM came to 76%.

As for `Cc1c(C(Nc2ccc(C(=O)NCCC(=O)O)cc2)C2CCCCC2)oc2ccc(C#N)cc12` (centres unmarked) [Example A98, 3-{[(4-{[(5-cyano-3-methyl-1-benzofuran-2-yl)(cyclohexyl)methyl]amino}phenyl)carbonyl]amino}propanoic acid], the inhibition at 10 µM was found to be 78%.
